Data on one compound can be found in ChEMBL document CHEMBL2417472, “Synthesis and biological evaluation of novel benzyl-substituted (S)-phenylalanine derivatives as potent dipeptidyl peptidase 4 inhibitors” (Bioorg Med Chem, 2013).

Structures are written as SMILES.

The subject of assay [1] is Rattus norvegicus. The assay is described as follows: Antidiabetic activity in po dosed Sprague-Dawley rat assessed as inhibition of glucose excursion administered 30 mins prior glucose challenge measured over 30 to 120 mins post challenge by OGTT. Type of assay: functional, organism-based.
The species entered for assay [2] is Rattus norvegicus. Kind of assay: animal or person. The note with it: Sprague-Dawley, po, read-out: INH.
The species named for assay [3] is Rattus norvegicus. Kind of assay: animal or person. The note with it: Sprague-Dawley, po, read-out: INH. The source holds these as a separate data set.
The species entered for assay [4] is Rattus norvegicus. The assay is described as follows: animal or person. The note with it: Sprague-Dawley, po, read-out: INH. This is another data set of the same source.

Consider `N#C[C@@H]1CCCN1C(=O)[C@@H](N)Cc1ccc(-c2cn(Cc3ccc(F)cc3)nn2)cc1`, for which the inhibition entry in the assay with Rattus norvegicus [1] was “Dose-dependent effect”. Besides, the inhibition in vivo at 10 mg/kg in the assay listed under Rattus norvegicus [2] stood at 28.8%. In addition, the inhibition in vivo at 3 mg/kg in the assay filed under Rattus norvegicus [3] is 21.7%. Further, in the assay filed under Rattus norvegicus [4], the inhibition in vivo at 1 mg/kg is 20.8%.
